From the supplement of paper PMC10307832

How the values were obtained:
Test in all cases: relative viability (nuclei count vs DMSO), 5 days (fraction); higher = more cells survive
[1] = compound: CCN1CCN(c2ccc(Nc3cc(N(C)C(=O)Nc4c(Cl)c(OC)cc(OC)c4Cl)ncn3)cc2)CC1 [BGJ398] + CC(C)C[C@H](NC(=O)[C@H](Cc1ccccc1)NC(=O)c1cnccn1)B(O)O [Bortezomib] (partner 0.002 µM)
Procedure, shortened: (§1)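 A single step with final 0.05% Triton X-100, 1% formaldehyde and 1 ug/ml Hoechst fixed the cells and stained nuclei 5 days after treatment. Lung cancer cell lines in 1536-well plates had been treated by pin tool the day after seeding with one drug alone or a fixed anchor-drug dose plus five library-drug doses (not always all listed) in √10 steps, and nuclei were counted on 4× images. Relative viability is the ratio of nuclei in treated wells to nuclei in vehicle wells, taken as the median of duplicate plates.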

[2] = compound: CCN1CCN(c2ccc(Nc3cc(N(C)C(=O)Nc4c(Cl)c(OC)cc(OC)c4Cl)ncn3)cc2)CC1 [BGJ398] + C[C@@H](Oc1cc(-c2cnn(C3CCNCC3)c2)cnc1N)c1c(Cl)ccc(F)c1Cl [Crizotinib] (partner 1 µM)
Procedure, shortened: as §1

[3] = compound: CCN1CCN(c2ccc(Nc3cc(N(C)C(=O)Nc4c(Cl)c(OC)cc(OC)c4Cl)ncn3)cc2)CC1 [BGJ398] + O=C(c1cc(Cc2n[nH]c(=O)c3ccccc23)ccc1F)N1CCN(C(=O)C2CC2)CC1 [Olaparib] (partner 8 µM)
Procedure, shortened: as §1

[4] = compound: CCN1CCN(c2ccc(Nc3cc(N(C)C(=O)Nc4c(Cl)c(OC)cc(OC)c4Cl)ncn3)cc2)CC1 [BGJ398] + Nc1ncn([C@H]2C[C@H](O)[C@@H](CO)O2)c(=O)n1 [Decitabine] (partner 2 µM)
Procedure, shortened: as §1

## UMC-11
[1]; first compound 0.01 µM
  relative viability: 0.759
[1]; first compound 0.03162 µM
  relative viability: 0.632
[1]; first compound 0.1 µM
  relative viability: 0.706
[1]; first compound 0.3162 µM
  relative viability: 0.661
[1]; first compound 1 µM
  relative viability: 0.475
[2]; first compound 0.01 µM
  relative viability: 0.507
[2]; first compound 0.03162 µM
  relative viability: 0.585
[2]; first compound 0.1 µM
  relative viability: 0.539
[2]; first compound 0.3162 µM
  relative viability: 0.579
[2]; first compound 1 µM
  relative viability: 0.53
[3]; first compound 0.01 µM
  relative viability: 0.316
[3]; first compound 0.03162 µM
  relative viability: 0.447
[3]; first compound 0.1 µM
  relative viability: 0.376
[3]; first compound 0.3162 µM
  relative viability: 0.367
[3]; first compound 1 µM
  relative viability: 0.342
[4]; first compound 0.01 µM
  relative viability: 0.504
[4]; first compound 0.03162 µM
  relative viability: 0.571
[4]; first compound 0.1 µM
  relative viability: 0.637
[4]; first compound 0.3162 µM
  relative viability: 0.652
[4]; first compound 1 µM
  relative viability: 0.365
